Data set [1] has as its system protein kinases (CKIδ, CKIα, ERK2, CDK7, p38α; ERK1). Nature of the data set: Affinity chromatography with compound 3 resin and U2OS cell lysate. It counts as binding, human. The method, then: U2OS cells kept in confluence (2×10^8 cells) were collected with ice-cold PBS and homogenized by using Dounce homogenizer in 5 ml of lysis buffer (25 mM MOPS, 15 mM EGTA, 15 mM MgCl2, 1 mM DTT, 60 mM β-glycerophosphate, 15 mM p-nitrophenyl phosphate, 1 mM Na3VO4, 1 mM NaF, 1 mM phenyl phosphate, 10 µg/ml leupeptin, 10 µg/ml aprotinin, 10 µg/ml soybean trypsin inhibitor, 100 µM benzamidine, pH7.2). The homogenate was sonicated and centrifuged (16,000×g) at 4°C for 20 min. The resulting supernatant was split into two, and each portion was incubated with or without 100 µM longdaysin (final 0.1% DMSO) at 4°C for 10 min (Figure 2C). Then, 120 µl of compound 3 [50% slurry in bead buffer (50 mM Tris, 250 mM NaCl, 5 mM EDTA, 5 mM EGTA, 0.1% NP-40, 5 mM NaF, 10 µg/ml leupeptin, 10 µg/ml aprotinin, 10 µg/ml soybean trypsin inhibitor, 100 µM benzamidine, pH 7.4)] was added to the mixture and incubated at 4°C for 1 h with rotation. […]
All gel bands were subjected to LC-MS/MS analysis as described previously. Tandem MS data were analyzed using Sequest (ThermoFinnigan, San Jose, CA; Version 3.0). […]
Scaffold (version Scaffold_2_05_00, Proteome Software Inc., Portland, OR) was used to validate MS/MS based peptide and protein identifications. […] Crude differential quantitation of proteins identified in both pulldown experiments was performed by comparing the number of assigned peptides.

The next data set has as its target T1, CDK7 (Homo sapiens, UniProt P50613).
T1 construct: purchased Millipore 14-476
Nature of the data set: In vitro kinase assay, CDK7. It counts as biochemical. Particulars: ATP 5 µM; from Figure 2E. The method, then:
(§1) The CKIδ, CKIα, CDK7, and ERK2 kinase assays were performed on 384-well plates (10 µl volume). The reaction mixture was as follows: for CKIδ, 2 ng/µl CKIδ (Millipore, 14-520), 50 µM peptide substrate RKKKAEpSVASLTSQCSYSS corresponding to human PER2 Lys659-Ser674 [47], and CKI buffer (40 mM Tris, 10 mM MgCl2, 0.5 mM DTT, 0.1 mg/ml BSA, pH 7.5); for CKIα, 1 ng/µl CKIα (Invitrogen, PV3850), 50 µM CKI peptide substrate (Anaspec, 60547-1), and CKI buffer; for CDK7, 5 ng/µl CDK7 (Millipore, 14-476), 100 µM Cdk7/9 peptide substrate (Millipore, 12-526), and CKI buffer; for ERK2, 1.5 ng/µl ERK2 (Millipore, 14-550), 0.8 µg/µl MBP (Millipore, 13-104), and ERK buffer (50 mM Tris, 10 mM MgCl2, 0.5 mM DTT, 1 mM EGTA, pH 7.5). Five hundred nl of compound was added to the mixture (final 5% DMSO), and the reaction was started by adding ATP (final 5 µM). After incubation at 30°C for 3h, 10 µl of Kinase-Glo Luminescent Kinase Assay reagent (Promega) was added, and the luminescence was detected to determine remaining ATP amount. […] IC50 value was obtained by using Prism software (GraphPad Software).

A further data set addresses p38α (Homo sapiens, UniProt Q16539). Nature of the data set: In vitro kinase assay, p38α (unpublished data). It counts as biochemical.
In data set [2] the target is T2, CKIα (Homo sapiens, UniProt P48729). Nature of the data set: Cell-based PER1 degradation assay (PER1-LUC), CKIα. The method, then:
HEK293T cells (6.0×10^4 cells) were reverse transfected on 96-well white solid-bottom plates by Lipofectamine 2000 with 40 ng each of expression vectors for C-terminally luciferase-fused PER1 (in p3XFLAG-CMV-14) and N-terminally HA-tagged kinase (in p3XFLAG-CMV-14). For luciferase (in p3XFLAG-CMV-14), 2 ng of expression vector with 38 ng of empty vector was used because of its efficient expression. After 48 h, the medium was supplemented with luciferin (final 1 mM) and HEPES-NaOH (pH 7.2; final 10 mM). After 1 h, cycloheximide (final 20 µg/ml) was added to the medium, and the plate was covered with optically clear film. The luminescence was recorded every 10 min by using the Tecan luminometer. Half-life was obtained by using Prism software (GraphPad Software).

In data set [3] the test system is larval per3-luc zebrafish. Nature of the data set: In vivo luminescence rhythms in per3-luc zebrafish. Particulars: up to 9 µM. The method, then: The per3-luc transgenic line was obtained from Zebrafish International Resource Center. Hemizygote larval fish were entrained in 12 h light/12 h dark cycles from day 3 to 6 postfertilization. They were then placed in an individual well of a 96-well white solid-bottom plate with 180 µl of E3 solution (5 mM NaCl, 0.17 mM KCl, 0.33 mM CaCl2, and 0.33 mM MgSO4, pH 7.0) containing 0.5 mM luciferin, 0.013% Amquel Plus Instant Water Detoxifier (Kordon brand; Novalek, Hayward, California, United States), and various concentrations of longdaysin (final 0.1% DMSO). The plate was covered with optically clear film, and the luminescence was recorded every 36 min by using the Tecan luminometer at 25°C. The period parameter was obtained from the luminescence rhythm by using MultiCycle software.

For data set [4], the target named is T2, CKIα. Nature of the data set: In vitro kinase assay, CKIα. It counts as biochemical. More on the design: purchased Invitrogen PV3850. As to conditions: ATP 5 µM; from Figure 2E. The method, then: as §1
In another data set the target is CKIδ (Homo sapiens, UniProt P48730). Nature of the data set: PER2-LUC degradation assay, CKIδ. Format: cell-based. As to conditions: HEK293T, 0 to 20 µM, 24 h.
Chain of CKIδ (P48730 whole entry, species assumed): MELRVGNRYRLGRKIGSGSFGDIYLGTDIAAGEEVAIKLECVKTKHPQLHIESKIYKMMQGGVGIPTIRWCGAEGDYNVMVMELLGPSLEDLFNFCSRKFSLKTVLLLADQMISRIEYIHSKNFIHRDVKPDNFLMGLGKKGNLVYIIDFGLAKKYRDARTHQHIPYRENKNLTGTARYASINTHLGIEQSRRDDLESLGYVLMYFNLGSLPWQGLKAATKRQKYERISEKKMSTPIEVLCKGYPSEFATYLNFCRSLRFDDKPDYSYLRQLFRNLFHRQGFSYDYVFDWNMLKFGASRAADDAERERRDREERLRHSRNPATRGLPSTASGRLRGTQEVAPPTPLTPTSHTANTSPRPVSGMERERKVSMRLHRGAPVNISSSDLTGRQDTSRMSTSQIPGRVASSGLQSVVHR
The target of another data set is T3, ERK2 (Homo sapiens, UniProt P28482).
T3 construct: purchased Millipore 14-550
T3 sequence (P28482 whole entry, species assumed): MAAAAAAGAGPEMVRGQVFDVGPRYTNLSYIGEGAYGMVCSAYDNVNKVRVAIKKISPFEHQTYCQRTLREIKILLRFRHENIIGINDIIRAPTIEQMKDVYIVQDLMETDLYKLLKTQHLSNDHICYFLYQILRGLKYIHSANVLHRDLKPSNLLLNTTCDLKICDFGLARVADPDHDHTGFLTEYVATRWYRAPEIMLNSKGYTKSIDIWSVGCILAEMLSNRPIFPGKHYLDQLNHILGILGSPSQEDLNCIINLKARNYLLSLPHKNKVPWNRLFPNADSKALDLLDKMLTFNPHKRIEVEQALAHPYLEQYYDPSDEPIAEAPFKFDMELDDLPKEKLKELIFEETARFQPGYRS
Nature of the data set: In vitro kinase assay, ERK2. Format: biochemical. The method, then:
as §1

From PMC3001897, “High-Throughput Chemical Screen Identifies a Novel Potent Modulator of Cellular Circadian Rhythms and Reveals CKIα as a Clock Regulatory Kinase” (PLoS Biology, 2010) come the findings set out here.

A value given as a limit tells only on which side of the number the result lay.

By IC50 is commonly meant the concentration that gives 50% inhibition. A word on the EC50: it is the concentration at which the effect is half-maximal.

T2 sequence (P48729 whole entry, the tested form may be a part): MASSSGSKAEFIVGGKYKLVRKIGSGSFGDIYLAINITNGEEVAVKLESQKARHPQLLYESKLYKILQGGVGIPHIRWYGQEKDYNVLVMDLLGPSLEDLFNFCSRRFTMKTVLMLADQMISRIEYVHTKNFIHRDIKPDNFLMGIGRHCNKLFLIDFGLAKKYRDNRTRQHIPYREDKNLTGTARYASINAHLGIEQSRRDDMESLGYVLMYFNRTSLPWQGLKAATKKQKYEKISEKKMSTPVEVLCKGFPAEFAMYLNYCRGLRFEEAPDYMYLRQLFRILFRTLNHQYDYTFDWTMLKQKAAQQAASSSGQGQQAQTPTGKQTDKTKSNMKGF
Chain of p38α (Q16539 whole entry): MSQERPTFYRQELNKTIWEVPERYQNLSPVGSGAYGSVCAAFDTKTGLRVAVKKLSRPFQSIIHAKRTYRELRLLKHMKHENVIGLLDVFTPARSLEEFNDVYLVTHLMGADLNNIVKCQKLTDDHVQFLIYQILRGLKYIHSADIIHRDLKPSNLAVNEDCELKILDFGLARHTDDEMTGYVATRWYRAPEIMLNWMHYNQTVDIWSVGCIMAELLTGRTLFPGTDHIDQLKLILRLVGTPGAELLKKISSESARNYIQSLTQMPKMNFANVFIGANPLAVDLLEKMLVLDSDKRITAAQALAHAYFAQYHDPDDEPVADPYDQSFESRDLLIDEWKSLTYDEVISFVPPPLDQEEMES
T1 sequence (P50613 whole entry): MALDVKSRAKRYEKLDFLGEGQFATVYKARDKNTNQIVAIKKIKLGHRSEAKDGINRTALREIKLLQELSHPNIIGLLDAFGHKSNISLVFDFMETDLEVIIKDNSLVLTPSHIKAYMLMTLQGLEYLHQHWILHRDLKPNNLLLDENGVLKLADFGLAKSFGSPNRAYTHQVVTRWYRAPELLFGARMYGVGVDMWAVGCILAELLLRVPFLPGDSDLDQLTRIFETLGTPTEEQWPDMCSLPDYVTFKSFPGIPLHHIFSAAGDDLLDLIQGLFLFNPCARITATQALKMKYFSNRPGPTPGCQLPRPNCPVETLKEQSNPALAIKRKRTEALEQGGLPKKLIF
T1 sequence (P51946 whole entry partner): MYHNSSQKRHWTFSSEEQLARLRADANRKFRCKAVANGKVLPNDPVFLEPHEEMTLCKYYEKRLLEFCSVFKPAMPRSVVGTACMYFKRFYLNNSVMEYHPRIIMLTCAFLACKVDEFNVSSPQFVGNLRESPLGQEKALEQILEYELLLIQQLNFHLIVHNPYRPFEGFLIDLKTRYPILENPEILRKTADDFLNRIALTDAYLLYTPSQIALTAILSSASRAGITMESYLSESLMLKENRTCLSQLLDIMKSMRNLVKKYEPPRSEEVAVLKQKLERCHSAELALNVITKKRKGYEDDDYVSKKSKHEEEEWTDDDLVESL
T1 sequence (P51948 whole entry partner): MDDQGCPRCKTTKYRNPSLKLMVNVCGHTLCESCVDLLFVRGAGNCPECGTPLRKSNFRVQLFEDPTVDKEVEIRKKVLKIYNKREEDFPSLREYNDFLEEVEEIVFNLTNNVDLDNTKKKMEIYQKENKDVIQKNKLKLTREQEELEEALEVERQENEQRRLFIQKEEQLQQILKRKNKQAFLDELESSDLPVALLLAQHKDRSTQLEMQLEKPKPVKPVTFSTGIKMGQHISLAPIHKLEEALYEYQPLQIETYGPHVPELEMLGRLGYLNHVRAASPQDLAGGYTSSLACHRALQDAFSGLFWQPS

Turning to `CC(C)n1cnc2c(NCc3cccc(C(F)(F)F)c3)ncnc21` [Longdaysin, 9-isopropyl-N-(3-(trifluoromethyl)benzyl)-9H-purin-6-amine], the “Binding of protein kinases to the affinity resin on competition” value in data set [1] (100 µM free longdaysin as soluble competitor) is recorded as “decreased binding in the presence of free longdaysin”. For the same compound, the “Signal reduction of listed binding proteins upon competition” value in data set [1] (100 µM free longdaysin, tandem MS spectra) is recorded as no less than 3 fold. For the same compound, the IC50 came to 29 µM against CDK7; 5.6 µM on CKIα [4]; 52 µM against ERK2 (ATP 5 µM, from Figure 2E). Moreover, on p38α, the “Effect on p38α activity” value was “much less effect”. This compound had an EC50 on CKIα [2] (HEK293T cells, 24 h treatment, from Figure 4E) of 9.2 µM. For the same compound, the “Effect on CKIα-dependent degradation of PER1” value at CKIα [2] (HEK293T, 0 to 20 µM, 24 h) is “inhibited by longdaysin treatment in a dose-dependent manner”. In data set [3] (1 wk treatment), the “Effect on body size” value is listed as “without affecting body size”. The “Period lengthening in vivo” value in data set [3] (per3-luc reporter fish, constant darkness) is greater than 10 h. Moreover, the “Effect on CKIδ-mediated PER2-LUC degradation” value at CKIδ is “inhibited the CKIδ-mediated PER2-LUC degradation in a dose-dependent manner”. In addition, the “Inhibition of ERK2 in vitro” value on ERK2 (range of 3 to 24 µM) is on record as “considerably inhibited ERK2 in vitro”.
